# Measured values reported in US12391679B2, “Benzamide-substituted bicyclic imidazo- and pyrazolo-fused -pyridine, -pyrimide, and -pyridazine compounds for treatment of inflammatory diseases” (ONCO3R Therapeutics BV, priority 2019, dated 2025).
# Test system: LPS triggered IL-10 secretion in monocytes
# Experiment: Monocytes assay: LPS-triggered IL-10 (ELISA)
# Format: cell-based, human
# Conditions: Homo sapiens, Monocyte, LPS-triggered IL-10 induction, median maximal fold change vs LPS only, read-out: IL-10 FCmax median
# Procedure: This assay evaluates illustrative compounds of the invention for their inhibition of LPS-induced TNFα and LPS triggered IL-10 secretion in monocytes.
# PBMCs are isolated from human blood samples (buffycoats). The buffy coat is aseptically transferred into a 50 mL Falcon tube, and diluted 1/2 in PBS. Falcon tubes are filled with 20 mL Lymphoprep™, on top of which 25 mL of the buffy coat is carefully added, tubes are centrifuged for 35 min at 400 g in temperature controlled centrifuge, without brake, at 25° C. PBMCs are aspirated from the white interface layer between sample and Lymphoprep™. PBMCs are washed five times in PBS.
# PBMCs are centrifuged at 300×g for 10 min and resuspended at a density of 1.0*10^7 cells/80 μL Miltenyi buffer (PBS, pH 7.4, 1% FBS, 2 mM EDTA).
# Starting from this point of the protocol all steps are performed on ice. 20 μL of CD14+ micro-beads are added per 1.0*10^7 cells, the tube is mixed and incubated for 15 min in the fridge at 4° C. Cell suspension volume is adjusted to total volume of 100 mL using Miltenyi buffer, mixed gently and subsequently centrifuged for 10 min at 300×g. Supernatant is discarded and cell pellet is resuspended in 12 mL of Miltenyi buffer.
# Four LS columns are placed in the MACS Separator (magnet) from Miltenyi Biotec, and are prewet by rinsing with 3 mL of MACS buffer per column. Three mL of cell suspension is added onto the column (max 1*10^8 of labelled cells/column), and columns are subsequently washed 3 times with 3 mL of Miltenyi buffer.
# The columns are removed from the magnets, and 5 mL of Miltenyi buffer are added to the column to flush out the CD14+ fraction by pushing the plunger into the column. The flushed fractions are collected in a fresh 50 mL Falcon and volume is adjusted to 30 mL using Miltenyi buffer, cells are centrifuged for 10 min at 300×g. The obtained cell pellet is resuspended in 10 mL RPMI w/o FBS, and cell density is determined using a hematologic analyser (Sysmex XS-500i).
# A compound dilution plate is made in 100% DMSO by 3-fold dilution of 10 mM stock solution. An intermediate dilution plate (10× final concentration) is made by diluting the compound dilution plate 50-fold in RPMI medium.
# 10 μL of the 10× final concentration compound is added to the cells and incubated for 1 h at 37° C. before addition of trigger. No trigger conditions/trigger conditions are spiked with equal final DMSO concentrations of 0.2% DMSO. 10 μL of 10×LPS (final conc. 200 ng/mL) solution are added to all wells except for the ‘no trigger wells’ where 10 μL medium is added. Supernatant is collected after 4 h of LPS triggering.
# A Lumitrac 600 Greiner 384-well plate is coated with 40 μL of capture antibody (final concentration of 1 μg/mL in 1×PBS) and stored overnight at 4° C. The next day the plate is washed three times with PBST (PBS+0.05% Tween20) and once with PBS followed by the addition of 100 μL of blocking buffer (1% BSA-5% Sucrose) and plates are sealed and incubated for at least 4 h at RT. After washing the plate once with PBST and once with PBS, 40 μL of standard or sample are added (IL-10 standard curve is prepared using a 1/2 serial dilution starting from 2000 pg/mL; dilutions are made in dilution buffer (PBS+1% BSA)). […] Plates are washed twice with PBST, and once with PBS, whereafter 35 μL of Strep-HRP conjugate (0.5 μg/mL final concentration diluted in dilution buffer) is added. Plates are incubated in the dark, at RT for at least 45 min but no longer than 1 h. Plates are washed twice with PBST, and once with PBS. Thereafter, 50 μL of luminol substrate is added to each well (prepared according to manufacturer's instructions), and incubated for 5 min at RT protected from light.
# To quantify these increases, fold changes (FC) compared to ‘LPS only’ are calculated for each concentration tested and the maximal FC is calculated (IL-10 FCmax): […]
row,SMILES,maximal fold induction
1,"COc1cc(-c2cnc3cc(C4COC4)ccn23)cc(OC(F)F)c1C(=O)N[C@@H]1C[C@@H]1F [Cpd 206, 2-(difluoromethoxy)-N-[(1R,2S)-2-fluorocyclopropyl]-6-methoxy-4-[7-(oxetan-3-yl)imidazo[1,2-a]pyridin-3-yl]benzamide]",1.5 to 4.5
2,"COc1cc(-c2cnc3cc(C4(O)CCOCC4)ccn23)cc(OC(F)F)c1C(=O)NC1CC1 [Cpd 170, N-cyclopropyl-2-(difluoromethoxy)-4-[7-(4-hydroxytetrahydropyran-4-yl)imidazo[1,2-a]pyridin-3-yl]-6-methoxy-benzamide]",1.5 to 4.5
3,"COc1cc(-c2cnc3cc(C4(C#N)CCOCC4)ccn23)cc(OC(F)F)c1C(=O)NC1CC1 [Cpd 116, 4-[7-(4-cyanotetrahydropyran-4-yl)imidazo[1,2-a]pyridin-3-yl]-N-cyclopropyl-2-(difluoromethoxy)-6-methoxy-benzamide]",1.5 to 4.5
4,"COc1cc(-c2cnn3cc(C4COCCO4)ccc23)cc(OC(F)F)c1C(=O)NC1CC1 (stereo not shown) [Cpd 232, N-cyclopropyl-2-(difluoromethoxy)-4-[6-(1,4-dioxan-2-yl)pyrazolo[1,5-a]pyridin-3-yl]-6-methoxy-benzamide]",< 1.5
5,"COc1cc(-c2cnc3cc(C(C)(C)O)ccn23)cc(OC(F)F)c1C(=O)N[C@@H]1C[C@@H]1F [Cpd 211, 2-(difluoromethoxy)-N-[(1R,2S)-2-fluorocyclopropyl]-4-[7-(1-hydroxy-1-methyl-ethyl)imidazo[1,2-a]pyridin-3-yl]-6-methoxy-benzamide]",1.5 to 4.5
6,"COc1cc(-c2cnc3cc(C(C)(C)C#N)ccn23)cc(OC(F)F)c1C(=O)N1CC(C#N)C1 [Cpd 77, 1-[4-[7-(1-cyano-1-methyl-ethyl)imidazo[1,2-a]pyridin-3-yl]-2-(difluoromethoxy)-6-methoxy-benzoyl]azetidine-3-carbonitrile]",1.5 to 4.5
7,"[2H]C([2H])([2H])C(C#N)(c1ccc2c(-c3cc(OC)c(C(=O)N[C@@H]4C[C@@H]4F)c(OC(F)F)c3)cnn2c1)C([2H])([2H])[2H] [Cpd 275, 4-[6-[1-cyano-2,2,2-trideuterio-1-(trideuteriomethyl)ethyl]pyrazolo[1,5-a]pyridin-3-yl]-2-(difluoromethoxy)-N-[(1R,2S)-2-fluorocyclopropyl]-6-methoxy-benzamide]",1.5 to 4.5
8,"COc1cc(-c2cnc3cc(C4(C#N)CCOC4)ccn23)cc(OC(F)F)c1C(=O)NC1CC1 (stereo not shown) [Cpd 123, 4-[7-(3-cyanotetrahydrofuran-3-yl)imidazo[1,2-a]pyridin-3-yl]-N-cyclopropyl-2-(difluoromethoxy)-6-methoxy-benzamide]",1.5 to 4.5
9,"COc1cc(-c2cnc3cc(C4CCC4)c(F)cn23)cc(OC(F)F)c1C(=O)NC1CC1 [Cpd 168, 4-(7-cyclobutyl-6-fluoro-imidazo[1,2-a]pyridin-3-yl)-N-cyclopropyl-2-(difluoromethoxy)-6-methoxy-benzamide]",1.5 to 4.5
10,"COCC(C)(C#N)c1ccn2c(-c3cc(OC)c(C(=O)NC4CC4)c(OC(F)F)c3)cnc2c1 (stereo not shown) [Cpd 195, 4-[7-(1-cyano-2-methoxy-1-methyl-ethyl)imidazo[1,2-a]pyridin-3-yl]-N-cyclopropyl-2-(difluoromethoxy)-6-methoxy-benzamide]",< 1.5
11,"COc1cc(-c2cnn3cc(C4COC4)ccc23)cc(OC(F)F)c1C(=O)N[C@@H]1C[C@@H]1F [Cpd 218, 2-(difluoromethoxy)-N-[(1R,2S)-2-fluorocyclopropyl]-6-methoxy-4-[6-(oxetan-3-yl)pyrazolo[1,5-a]pyridin-3-yl]benzamide]",1.5 to 4.5
12,"COc1cc(-c2cnc3cc(C(C)(C)C(C)O)ccn23)cc(OC(F)F)c1C(=O)NC1CC1 (stereo not shown) [Cpd 172, N-cyclopropyl-2-(difluoromethoxy)-4-[7-(2-hydroxy-1,1-dimethyl-propyl)imidazo[1,2-a]pyridin-3-yl]-6-methoxy-benzamide]",< 1.5
13,"COc1cc(-c2cnc3cc(C4(F)COC4)ccn23)cc(OC(F)F)c1C(=O)N[C@@H]1C[C@@H]1F [Cpd 224, 2-(difluoromethoxy)-N-[(1R,2S)-2-fluorocyclopropyl]-4-[7-(3-fluorooxetan-3-yl)imidazo[1,2-a]pyridin-3-yl]-6-methoxy-benzamide]",1.5 to 4.5
14,"COc1cc(-c2cnc3cc(C(C)(C)C#N)ccn23)cc(OC(F)F)c1C(=O)N[C@@H]1C[C@@H]1F [Cpd 79, 4-[7-(1-cyano-1-methyl-ethyl)imidazo[1,2-a]pyridin-3-yl]-2-(difluoromethoxy)-N-[(1R,2S)-2-fluorocyclopropyl]-6-methoxy-benzamide]",1.5 to 4.5
15,"COc1cc(-c2cnn3cc(C4(C#N)CCOCC4)ccc23)cc(OC(F)F)c1C(=O)NC1CC1 [Cpd 237, 4-[6-(4-cyanotetrahydropyran-4-yl)pyrazolo[1,5-a]pyridin-3-yl]-N-cyclopropyl-2-(difluoromethoxy)-6-methoxy-benzamide]",< 1.5
16,"COc1cc(-c2cnc3cc(C(F)(F)CO)ccn23)cc(OC(F)F)c1C(=O)NC1CC1 [Cpd 136, N-cyclopropyl-4-[7-(1,1-difluoro-2-hydroxy-ethyl)imidazo[1,2-a]pyridin-3-yl]-2-(difluoromethoxy)-6-methoxy-benzamide]",1.5 to 4.5
17,"COc1cc(-c2cnc3cc(C(C)(O)C(F)(F)F)ccn23)cc(OC(F)F)c1C(=O)NC1CC1 (stereo not shown) [Cpd 129, N-cyclopropyl-2-(difluoromethoxy)-6-methoxy-4-[7-(2,2,2-trifluoro-1-hydroxy-1-methyl-ethyl)imidazo[1,2-a]pyridin-3-yl]benzamide]",1.5 to 4.5
18,"COc1cc(-c2cnc3cc(C(C)(C)C#N)ccn23)cc(OC(F)F)c1C(=O)NCC1CC1 [Cpd 39, 4-[7-(1-cyano-1-methyl-ethyl)imidazo[1,2-a]pyridin-3-yl]-N-(cyclopropylmethyl)-2-(difluoromethoxy)-6-methoxy-benzamide]",1.5 to 4.5
19,"COc1cc(-c2cnn3cc(C(C)(C)C#N)ccc23)cc(OC(F)F)c1C(=O)N[C@@H]1C[C@@H]1F [Cpd 219, 4-[6-(1-cyano-1-methyl-ethyl)pyrazolo[1,5-a]pyridin-3-yl]-2-(difluoromethoxy)-N-[(1R,2S)-2-fluorocyclopropyl]-6-methoxy-benzamide]",< 1.5
20,"COc1cc(-c2cnc3cc(C4(F)COC4)ccn23)cc(OC(F)F)c1C(=O)NC1CC1 [Cpd 207, N-cyclopropyl-2-(difluoromethoxy)-4-[7-(3-fluorooxetan-3-yl)imidazo[1,2-a]pyridin-3-yl]-6-methoxy-benzamide]",< 1.5

# Same assay, conditions: LPS-triggered IL-10 induction, median maximal fold change vs LPS only
row,SMILES,IL-10 FCmax median
1,"COc1cc(-c2cnc3cc([C@@](C)(C#N)CO)ccn23)cc(OC(F)F)c1C(=O)NC1CC1 (single isomer, unassigned) [Cpd 190, 4-[7-(1-cyano-2-hydroxy-1-methyl-ethyl)imidazo[1,2-a]pyridin-3-yl]-N-cyclopropyl-2-(difluoromethoxy)-6-methoxy-benzamide]",+ (+ ≤1.5)
2,"COc1cc(-c2cnn3cc(C(C)(C)C#N)ccc23)cc(OC(F)F)c1C(=O)N[C@@H]1C[C@H]1F (single isomer, unassigned) [Cpd 258, 4-[6-(1-cyano-1-methyl-ethyl)pyrazolo[1,5-a]pyridin-3-yl]-2-(difluoromethoxy)-N-(2-fluorocyclopropyl)-6-methoxy-benzamide]",+ (+ ≤1.5)
